Consider 29 compounds from patent US12319655B2, “RAF kinase inhibitors and methods of use thereof” (Deciphera Pharmaceuticals, LLC, priority 2021, dated 2025).

Assay [1] concerns the target B-Raf (V600E) (SEQ. ID NO: 4) kinase (Homo sapiens (Human), UniProt P15056, V600E). Briefly: Biochemical Assay for B-Raf (V600E) (1). To be noted: Table J, BRAF V600E, assay version (1); read-out: BRAF VE (1) IC50. The gist of the method: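 Coupled pyruvate kinase/lactate dehydrogenase assay: 0.03 nM B-Raf V600E, 30.1 nM MEK, 1 mM ATP, pH 7.5 Tris/MgCl2 buffer, 1% DMSO. NADH oxidation followed at 340 nm for 6 h at 30 °C; rate from 3–4 h converted to percent inhibition, IC50 by four-parameter fit.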

In assay [2] the target is B-Raf kinase (SEQ. ID NO: 2) (Homo sapiens (Human), UniProt P15056). The experiment in a line: Biochemical Assay for B-Raf (1). To be noted: Table J, assay version (1); read-out: BRAF (1) IC50. The gist of the method: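 Continuous PK/LDH-coupled NADH oxidation assay, A340 read for 6 h at 30° C., with 0.13 nM B-Raf, 30.1 nM MEK substrate and 1 mM ATP in Tris pH 7.5, MgCl2, DTT, detergents, 1% DMSO. Rate taken from 4–5 h window; percent inhibition vs no-compound and known-inhibitor controls; four-parameter fit gives IC50.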

For assay [3], the target named is C-Raf kinase (SEQ. ID NO: 3) (Homo sapiens (Human), UniProt P04049, Y340D/Y341D). Briefly: Biochemical Assay for C-Raf (1). To be noted: Table J, assay version (1); read-out: CRAF (1) IC50. The gist of the method:
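Coupled pyruvate kinase/LDH assay tracking NADH oxidation at 340 nm, with 0.43 nM C-Raf, 30.1 nM MEK and 1 mM ATP in pH 7.5 Tris buffer (15 mM MgCl2, 1% DMSO final). Read continuously for 6 h at 30 °C, rate taken from the 4–5 h window. IC50 from four-parameter fit of percent inhibition.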

For assay [4], the system named is WM3928 cells. Briefly: WM3928 Cell Proliferation Assay (1). Format: cell-based. The gist of the method: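 IC50 was derived from resazurin fluorescence (ex 540, em 600 nm) after a 6–7 h dye incubation. Before that, cells had 67–72 h of compound exposure at 37 °C, 5% CO2.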

Structures are written as SMILES.

Chain of B-Raf kinase (SEQ. ID NO: 2) (P15056 416-766): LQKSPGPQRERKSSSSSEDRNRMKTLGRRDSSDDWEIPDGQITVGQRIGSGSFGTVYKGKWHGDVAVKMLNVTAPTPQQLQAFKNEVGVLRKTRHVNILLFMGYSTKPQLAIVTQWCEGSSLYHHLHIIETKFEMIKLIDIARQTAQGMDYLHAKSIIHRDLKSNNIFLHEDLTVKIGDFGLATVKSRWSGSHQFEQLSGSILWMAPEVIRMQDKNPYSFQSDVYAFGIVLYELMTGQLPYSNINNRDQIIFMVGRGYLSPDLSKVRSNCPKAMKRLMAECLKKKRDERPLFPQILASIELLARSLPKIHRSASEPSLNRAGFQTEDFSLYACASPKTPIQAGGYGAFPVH
Chain of C-Raf kinase (SEQ. ID NO: 3) (P04049 307-648 Y340D/Y341D): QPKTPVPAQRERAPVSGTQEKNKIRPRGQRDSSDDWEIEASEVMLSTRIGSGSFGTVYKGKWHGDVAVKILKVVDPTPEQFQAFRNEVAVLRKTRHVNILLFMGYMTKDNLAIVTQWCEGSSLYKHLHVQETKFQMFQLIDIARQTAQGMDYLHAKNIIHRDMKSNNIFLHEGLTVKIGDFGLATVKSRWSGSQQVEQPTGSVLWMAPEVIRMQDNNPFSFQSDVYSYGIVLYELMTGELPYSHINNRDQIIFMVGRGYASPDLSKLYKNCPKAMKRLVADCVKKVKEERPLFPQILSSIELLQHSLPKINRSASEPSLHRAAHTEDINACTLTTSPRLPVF
Chain of B-Raf (V600E) (SEQ. ID NO: 4) kinase (P15056 416-766 V600E): as the sequence (P15056 416-766) above, with V185E counted along it

For orientation: IC50 means the point on the concentration scale where inhibition reaches its midpoint. As for `CNC(=O)c1cc(-c2cc(-c3cc(NC(=O)c4ccnc(C(C)(C)C#N)c4)ccc3C#N)ccn2)ccn1` [Example 247], the IC50 is not above 0.1 µM in assay [1], 1 to 10 µM in assay [2] and 0.1 to 0.5 µM in assay [3].

For the compound `CNC(=O)c1cc(-c2nccc(-c3cc(NC(=O)c4ccnc(C(C)(C)C#N)c4)cnc3C)n2)ccn1` [Example 194], the half-maximal inhibitory concentration (IC50) in assay [4] is 0.1 to 0.5 µM; in assay [1], not above 0.1 µM; in assay [2], 0.5 to 1 µM; in assay [3], 0.1 to 0.5 µM.

Turning to `CNC(=O)c1cc(-c2cc(-c3cc(NC(=O)c4cnnc(C5CC5)c4)ccc3C)ccn2)ccn1` [Example 215], the half-inhibitory concentration (IC50) is 0.5 to 1 µM in assay [4], not above 0.1 µM in assay [1], not above 0.1 µM in assay [2] and not above 0.1 µM in assay [3].

For the compound `Cc1ncc(NC(=O)c2ccnc(C(C)(C)C#N)c2)cc1-c1cc(-c2cc(NC(=O)C3CC3)ncn2)cc(C2CC2)c1` [Example 218], the IC50 was not above 0.1 µM in assay [4], not above 0.1 µM in assay [1], 0.1 to 0.5 µM in assay [2] and not above 0.1 µM in assay [3].

`Cc1ncc(NC(=O)c2cnnc(C3CC3)c2)cc1-c1ccnc(-c2ccnc(NC(=O)C3CC3)c2)n1` [Example 278]: the IC50 in assay [4] was 1 to 10 µM; in assay [1], not above 0.1 µM; in assay [2] it was not above 0.1 µM; in assay [3] it was not above 0.1 µM.

In the case of `Cc1ccc(NC(=O)c2ccnc(C(C)(C)C#N)c2)cc1-c1cccc(-c2cc(N)ncn2)c1` [Example 267], the IC50 in assay [4] was 0.1 to 0.5 µM; in assay [1] it was not above 0.1 µM; in assay [2], not above 0.1 µM; in assay [3] it was not above 0.1 µM.

On to `Cc1ccc(NC(=O)c2ccnc(C(F)F)c2)cc1-c1ccnc(-c2ccnc(NC(=O)C3CC3)c2)n1` [Example 189], for which the half-inhibitory concentration (IC50) in assay [4], in assay [1], in assay [2] and in assay [3] was not above 0.1 µM in each case.

For the compound `Cc1ccc(NC(=O)c2ccnc(C(F)(F)F)c2)cc1-c1ccnc(-c2ccnc(N)c2)c1` [Example 16, N-(3-(2′-amino-[2,4′-bipyridin]-4-yl)-4-methylphenyl)-2-(trifluoromethyl)isonicotinamide], the concentration for half-maximal inhibition (IC50) was 1 to 10 µM in assay [4], not above 0.1 µM in assay [1], not above 0.1 µM in assay [2] and not above 0.1 µM in assay [3].

`Cc1ncc(NC(=O)c2ccnc(C(C)(C)C#N)c2)cc1-c1cccc(-c2cc(NC(=O)C3CC3)ncn2)n1` [Example 226]: the IC50 lay within 1 to 10 µM in assay [4], 0.1 to 0.5 µM in assay [1], 1 to 10 µM in assay [2] and 0.5 to 1 µM in assay [3].

`Cc1ncc(NC(=O)c2cnnc(C3CC3)c2)cc1-c1ccnc(-c2ccnc(NC(=O)C3CC3)c2)c1` [Example 254]: the IC50 in assay [4] was 1 to 10 µM; in assay [1], not above 0.1 µM; in assay [2] it was not above 0.1 µM; in assay [3], not above 0.1 µM.

As for `Cc1ncc(NC(=O)c2ccnc(C3CC3)c2)cc1-c1cccc(-c2ccnc(NC(=O)C3CC3)c2)n1` [Example 270], the 50% inhibitory concentration (IC50) in assay [4] is 0.1 to 0.5 µM; in assay [1], not above 0.1 µM; in assay [2], not above 0.1 µM; in assay [3], not above 0.1 µM.

In the case of `CNC(=O)c1cc(-c2cc(-c3cc(NC(=O)c4ccnc(C(C)(C)C#N)c4)ccc3F)cc(C)n2)ccn1` [Example 259], the IC50 in assay [1] was not above 0.1 µM; in assay [2], 0.1 to 0.5 µM; in assay [3] it was not above 0.1 µM.

Take `Cc1ncc(NC(=O)c2ccnc(C(C)(C)C#N)c2)cc1-c1cccc(-c2cc(N)ncn2)c1` [Example 207]: the figures for the IC50 in assay [1], in assay [2] and in assay [3] were not above 0.1 µM, 0.1 to 0.5 µM and not above 0.1 µM, respectively.

Turning to `Cc1ncc(NC(=O)c2ccnc(C(C)C)c2)cc1-c1cccc(-c2ccnc(NC(=O)C3CC3)c2)n1` [Example 269], the half-maximal inhibitory concentration (IC50) in assay [1], in assay [2] and in assay [3] was not above 0.1 µM each time.

For the compound `Cc1ccc(NC(=O)c2ccnc(C(F)(F)F)c2)cc1-c1ccnc(-c2ccnc3c2CC(=O)N3)c1` [Example 18], the concentration for half-maximal inhibition (IC50) in assay [1], in assay [2] and in assay [3] was not above 0.1 µM throughout.

Take `Cc1cc(-c2cc(NC(=O)C3CC3)ncn2)cc(-c2cc(NC(=O)c3ccnc(C(C)(C)C#N)c3)ccc2C)c1` [Example 212]: the IC50 in assay [1], in assay [2] and in assay [3] was not above 0.1 µM each time.

Take `Cc1ccc(NC(=O)c2ccnc(C(F)(F)F)c2)cc1-c1ccnc(-c2ccnc(NC(=O)CN(C)C)c2)c1` [Example 17]: the concentration for half-maximal inhibition (IC50) in assay [1], in assay [2] and in assay [3] was not above 0.1 µM in each case.

For the compound `Cc1ccc(NC(=O)c2ccnc(C(F)(F)F)c2)cc1-c1cc(-c2ccnc(NC(=O)C3CC3)c2)n(C)c(=O)c1` [Example 13], the half-inhibitory concentration (IC50) in assay [1], in assay [2] and in assay [3] was not above 0.1 µM each time.

For `CNC(=O)c1cc(-c2ccnc(-c3cc(NC(=O)c4ccnc(C(C)(C)OC)c4)ccc3C)n2)ccn1` [Example 268], the results for the IC50 in assay [1], in assay [2] and in assay [3] were not above 0.1 µM, 0.1 to 0.5 µM and 0.1 to 0.5 µM, respectively.

Regarding `CC(C)(C#N)c1cc(C(=O)Nc2ccc(C#N)c(-c3cccc(-c4cc(NC(=O)C5CC5)ncn4)c3)c2)ccn1` [Example 240], the half-inhibitory concentration (IC50) in assay [1] is not above 0.1 µM; in assay [2], 0.1 to 0.5 µM; in assay [3] it was not above 0.1 µM.

Take `CC(=O)Nc1cc(-c2cc(-c3cc(NC(=O)c4ccnc(C(C)(C)C#N)c4)ccc3C)ccn2)ccn1` [Example 19]: the 50% inhibitory concentration (IC50) in assay [1], in assay [2] and in assay [3] was not above 0.1 µM each time.

For the compound `CC(=O)Nc1cc(-c2cc(-c3cc(NC(=O)c4ccnc(C(F)(F)F)c4)ccc3C)cc(N3CCOCC3)n2)ccn1` [Example 15], the IC50 in assay [1], in assay [2] and in assay [3] was not above 0.1 µM in each case.

`CNC(=O)c1cc(-c2ccnc(-c3cc(NC(=O)c4ccnc(C(C)(C)F)c4)ccc3C)n2)ccn1` [Example 246]: the IC50 was not above 0.1 µM in assay [1], 0.1 to 0.5 µM in assay [2] and not above 0.1 µM in assay [3].

On to `CC(=O)Nc1cc(-c2cc(-c3cc(NC(=O)c4ccnc(C(F)(F)F)c4)ccc3C)cc(C3CC3)n2)ccn1` [Example 14], for which the IC50 in assay [1], in assay [2] and in assay [3] was not above 0.1 µM throughout.

Turning to `Cc1cc(-c2cc(NC(=O)c3ccnc(C(F)(F)F)c3)ccc2C)cc(-c2ccnc3c2CC(=O)N3)n1` [Example 20], the 50% inhibitory concentration (IC50) in assay [1], in assay [2] and in assay [3] was not above 0.1 µM throughout.

On to `Cc1cc(F)c(NC(=O)c2ccnc(C(C)(C)F)c2)cc1-c1cncc(-c2ccnc(NC(=O)C3CC3)c2)n1` [Example 276], for which the half-maximal inhibitory concentration (IC50) in assay [1], in assay [2] and in assay [3] was not above 0.1 µM throughout.

For the compound `CCOc1cc(-c2cc(NC(=O)c3ccnc(C(F)(F)F)c3)ccc2C)cc(-c2ccnc(NC(=O)C3CC3)c2)n1` [Example 12], the IC50 in assay [1], in assay [2] and in assay [3] was not above 0.1 µM in each case.

For `CCNC(=O)c1cc(-c2cc(-c3cc(NC(=O)c4ccnc(C(C)(C)C#N)c4)ccc3C)ccn2)ccn1` [Example 266], the half-maximal inhibitory concentration (IC50) in assay [1] was not above 0.1 µM; in assay [2], 0.1 to 0.5 µM; in assay [3], not above 0.1 µM.

On to `COC(C)(C)C(=O)Nc1cc(-c2cc(-c3cc(NC(=O)c4ccnc(C(C)(C)C#N)c4)ccc3C)ccn2)ccn1` [Example 237], for which the IC50 in assay [1] was not above 0.1 µM; in assay [2] it was 0.1 to 0.5 µM; in assay [3], 0.1 to 0.5 µM.
